Measurements taken from the NIST ThermoML archive (doi:10.1021/je200730m).

Conditions: Liquid, Closed cell (Static) method

CCCCCCCCCC(=O)OCC [ethyl decanoate]
Conditions	vapor or sublimation pressure [kPa]
303.1 K	0.00446
313.16 K	0.0105
333.23 K	0.0478
343.2 K	0.0952
353.16 K	0.181
363.12 K	0.328
412.15 K	3.65
422.13 K	5.472
432.24 K	8.07
442.23 K	11.55
452.28 K	16.28
462.37 K	22.35

CCCCCCCCCCCC(=O)OCC [ethyl dodecanoate]
Conditions	vapor or sublimation pressure [kPa]
313.1 K	0.00183
351.88 K	0.0346
362.1 K	0.0674
372.12 K	0.124
382.17 K	0.229
392.24 K	0.399
402.2 K	0.669
422.15 K	1.695
432.26 K	2.647
442.27 K	3.986
452.31 K	5.804
462.43 K	8.49

CCCCCC(=O)OCC [ethyl hexanoate]
Conditions	vapor or sublimation pressure [kPa]
253.41 K	0.00344
263.26 K	0.0106
283.06 K	0.0663
293.05 K	0.144
303.03 K	0.291
313.15 K	0.562
323.18 K	1.018
333.11 K	1.781
343.09 K	2.978
351.97 K	4.553
362.1 K	7.184
372.13 K	10.93
382.15 K	16.07
392.23 K	23.19
402.19 K	32.56
412.21 K	44.9
422.19 K	60.62
432.28 K	80.76
442.29 K	105.57
452.34 K	136.73
462.43 K	174.6

CCCCCCCC(=O)OCC [ethyl octanoate]
Conditions	vapor or sublimation pressure [kPa]
273.26 K	0.00219
283.08 K	0.00627
293.05 K	0.0156
303.09 K	0.035
313.2 K	0.0757
323.31 K	0.152
351.9 K	0.869
362.1 K	1.487
372.06 K	2.432
382.13 K	3.872
392.19 K	5.904
402.13 K	8.723
412.13 K	12.67
422.12 K	18.04
432.22 K	25.22
442.26 K	34.49
452.3 K	46.42

CCCCCCCCCCCCCC(=O)OCC [ethyl tetradecanoate]
Conditions	vapor or sublimation pressure [kPa]
333.22 K	0.00147
343.19 K	0.00361
353.15 K	0.00775
363.09 K	0.0163
371.72 K	0.0302
382.03 K	0.0572
391.87 K	0.105
401.89 K	0.187
411.93 K	0.322
421.97 K	0.539
432.22 K	0.887
442.39 K	1.394
452.25 K	2.127
462.3 K	3.2
